In patent US12421249B2, “Inhibitors of APOL1 and methods of using same” (Vertex Pharmaceuticals Incorporated, priority 2020, dated 2025):
Where two headings read alike, the source gives them in different places.

Experiments:
APOL1 = target: T1, APOL1 (Homo sapiens, UniProt O14791); experiment: Multi-Tox Assay (MultiTox-Fluor Multiplex Cytotoxicity Assay in tet-inducible APOL1 T-REx-HEK293 cells; Table 46 does not say which APOL1 variant G0/G1/G2); format: cell-based; details: APOL1 variant not given; for IC50: IP50 = IC50 for cell proliferation
T1 sequence (O14791 1-398 S342G/I384M): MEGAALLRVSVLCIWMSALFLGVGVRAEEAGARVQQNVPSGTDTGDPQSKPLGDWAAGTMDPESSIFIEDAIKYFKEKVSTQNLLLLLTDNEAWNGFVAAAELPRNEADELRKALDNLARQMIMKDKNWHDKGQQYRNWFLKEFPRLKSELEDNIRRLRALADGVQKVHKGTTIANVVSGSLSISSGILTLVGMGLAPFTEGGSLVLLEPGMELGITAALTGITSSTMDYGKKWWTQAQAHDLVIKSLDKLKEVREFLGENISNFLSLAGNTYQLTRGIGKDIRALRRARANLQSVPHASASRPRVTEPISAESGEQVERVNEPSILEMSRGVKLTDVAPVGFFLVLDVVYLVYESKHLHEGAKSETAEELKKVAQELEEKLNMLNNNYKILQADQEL

APOL1 G1 = target: T2, APOL1 G1 (Homo sapiens, UniProt O14791, I384M/S342G); experiment: Trypanosoma brucei brucei Lysis Assay Using APOL1 Recombinant Protein (AlamarBlue viability readout); format: cell-based; details: for IC50: IP50 = IC50 for cell proliferation, read-out: Trypanosome Assay IP50; for Emax: read-out: Trypanosome Assay Max Activity (%)
T2 sequence (O14791 28-398 S342G/I384M): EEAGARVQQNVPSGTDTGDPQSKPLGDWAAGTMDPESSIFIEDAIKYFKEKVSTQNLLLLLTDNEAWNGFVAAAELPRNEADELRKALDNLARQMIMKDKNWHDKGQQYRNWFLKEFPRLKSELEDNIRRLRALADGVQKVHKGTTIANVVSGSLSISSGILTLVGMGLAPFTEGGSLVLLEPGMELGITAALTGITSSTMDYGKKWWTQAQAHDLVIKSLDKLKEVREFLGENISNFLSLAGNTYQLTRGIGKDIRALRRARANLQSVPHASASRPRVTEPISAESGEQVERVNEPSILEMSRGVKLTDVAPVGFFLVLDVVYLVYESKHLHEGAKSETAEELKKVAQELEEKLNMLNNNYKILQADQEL
Outline: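 Percent viability comes from AlamarBlue (resazurin→resorufin) fluorescence interpolated on a standard curve of known parasite numbers, with no-APOL1 wells as 100%. Parasites (Lister 427 bloodstream form, 120,000/well, serum-free assay medium) meet 0.05 μg/mL APOL1 (~EC90). Compounds span a 10-point series, 0.1% DMSO final.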

SMILES	Multi-Tox Assay Max Activity (%) (APOL1)	IC50 (APOL1)	IC50 (APOL1 G1; Trypanosome Assay)	Emax (APOL1 G1; Trypanosome Assay)	Emax (APOL1 G1)	IC90 (APOL1)	Trypanosome Assay Max Activity (%) (APOL1 G1; Trypanosome Assay)
C[C@H]1C[C@@]2(C[C@@H](c3cccc(-c4cn[nH]c4)c3)N1)OCCc1cc(Cl)sc12 (racemic) [Compound 148]	97.0%	0.05 to 0.5 µM	0.05 to 0.5 µM	92.5%	–	–	–
C[C@H]1C[C@@]2(C[C@@H](c3cnc4n3CCOC4)N1)OCCc1cc(Cl)sc12 (racemic) [Compound 149]	–	0.05 to 0.5 µM	> 0.5 µM	95%	–	–	–
Cc1nc([C@@H]2C[C@]3(C[C@H](C)N2)OCCc2cc(Cl)sc23)[nH]c1C (racemic) [Compound 150]	96.3%	0.05 to 0.5 µM	> 0.5 µM	87%	–	–	–
C[C@H]1C[C@@]2(C[C@@H](c3cccc(=O)[nH]3)N1)OCCc1cc(Cl)sc12 (racemic) [Compound 151]	–	0.05 to 0.5 µM	> 0.5 µM	85.7%	–	–	–
C[C@H]1C[C@@]2(C[C@@H](c3ccnn3C)N1)OCCc1cc(Cl)sc12 (racemic) [Compound 152]	98.0%	0.05 to 0.5 µM	> 0.5 µM	92.7%	–	–	–
CCc1c[nH]c([C@@H]2C[C@]3(C[C@H](C)N2)OCCc2cc(Cl)sc23)n1 (racemic) [Compound 153]	96.0%	0.05 to 0.5 µM	> 0.5 µM	89.5%	–	–	–
COc1nn(C)cc1[C@@H]1C[C@]2(C[C@H](C)N1)OCCc1cc(Cl)sc12 (racemic) [Compound 154]	–	> 0.5 µM	> 0.5 µM	96.5%	–	–	–
Cc1coc([C@@H]2C[C@]3(C[C@H](C)N2)OCCc2cc(Cl)sc23)n1 (racemic) [Compound 155]	–	0.05 to 0.5 µM	> 0.5 µM	97%	–	–	–
Cc1nc([C@@H]2C[C@]3(C[C@H](C)N2)OCCc2cc(Cl)sc23)c[nH]1 (racemic) [Compound 156]	–	> 0.5 µM	> 0.5 µM	85%	–	–	–
Cc1ncoc1[C@@H]1C[C@]2(C[C@H](C)N1)OCCc1cc(Cl)sc12 (racemic) [Compound 157]	96.3%	0.05 to 0.5 µM	> 0.5 µM	95%	–	–	–
Cc1nn(CCO)cc1[C@@H]1C[C@]2(C[C@H](C)N1)OCCc1cc(Cl)sc12 (racemic) [Compound 158]	–	> 0.5 µM	> 0.5 µM	75.5%	–	–	–
Cc1nc([C@@H]2C[C@]3(C[C@H](C)N2)OCCc2cc(Cl)sc23)cn1C (racemic) [Compound 159]	–	> 0.5 µM	> 0.5 µM	63.5%	–	–	–
C[C@H]1C[C@@]2(C[C@@H](c3cnccc3O)N1)OCCc1cc(Cl)sc12 (racemic) [Compound 160]	–	> 0.5 µM	> 0.5 µM	97.5%	–	–	–
Cc1nc[nH]c1[C@@H]1C[C@]2(C[C@H](C)N1)OCCc1cc(Cl)sc12 (racemic) [Compound 161]	–	> 0.5 µM	> 0.5 µM	73%	–	–	–
CC(C)c1c[nH]c([C@@H]2C[C@]3(C[C@H](C)N2)OCCc2cc(Cl)sc23)n1 (racemic) [Compound 162]	–	> 0.5 µM	> 0.5 µM	81%	–	–	–
C[C@H]1C[C@@]2(C[C@@H](c3cnn4c3OCCC4)N1)OCCc1cc(Cl)sc12 (racemic) [Compound 163]	–	> 0.5 µM	> 0.5 µM	79.5%	–	–	–
Cc1nccnc1[C@@H]1C[C@]2(C[C@H](C)N1)OCCc1cc(Cl)sc12 (racemic) [Compound 164]	–	> 0.5 µM	> 0.5 µM	85%	–	–	–
C[C@H]1C[C@@]2(C[C@@H](c3ncc(C(F)(F)F)[nH]3)N1)OCCc1cc(Cl)sc12 (racemic) [Compound 165]	92.0%	> 0.5 µM	> 0.5 µM	61%	–	–	–
COc1cccc([C@@H]2C[C@]3(C[C@H](C)N2)OCCc2cc(Cl)sc23)c1O (racemic) [Compound 166]	–	> 0.5 µM	> 0.5 µM	57.5%	–	–	–
Cc1cccnc1[C@@H]1C[C@]2(C[C@H](C)N1)OCCc1cc(Cl)sc12 (racemic) [Compound 167]	–	> 0.5 µM	> 0.5 µM	73%	–	–	–

SMILES	Multi-Tox Assay Max Activity (%) (APOL1)	IC50 (APOL1)	IC50 (APOL1 G1; Trypanosome Assay)	Emax (APOL1 G1; Trypanosome Assay)	Emax (APOL1 G1)	IC90 (APOL1)	Trypanosome Assay Max Activity (%) (APOL1 G1; Trypanosome Assay)
C[C@H]1C[C@@]2(C[C@@H](c3cccc4cn[nH]c34)N1)OCCc1cc(Cl)sc12 (racemic) [Compound 168]	–	> 0.5 µM	> 0.5 µM	54.5%	–	–	–
C[C@H]1C[C@@]2(C[C@@H](c3n[nH]c4ccccc34)N1)OCCc1cc(Cl)sc12 (racemic) [Compound 169]	–	> 0.5 µM	> 0.5 µM	61%	–	–	–
Cc1nc2c([C@@H]3C[C@]4(C[C@H](C)N3)OCCc3cc(Cl)sc34)cccc2o1 (racemic) [Compound 170]	89.7%	> 0.5 µM	> 0.5 µM	71.5%	–	–	–
C[C@H]1C[C@@]2(C[C@@H](c3ncnn3C)N1)OCCc1cc(Cl)sc12 (racemic) [Compound 171]	–	> 0.5 µM	> 0.5 µM	14%	–	–	–
C[C@H]1C[C@@]2(C[C@@H](c3ncccc3O)N1)OCCc1cc(Cl)sc12 (racemic) [Compound 172]	–	> 0.5 µM	> 0.5 µM	64.5%	–	–	–
C[C@@H]1C[C@]2(C[C@H](C)N1)OCC(O)c1cc(Cl)sc12 (mixture of isomers) [Compound 205, (2R,6S)-2-chloro-2′,6′-dimethyl-spiro[4,5-dihydrothieno[2,3-c]pyran-7,4′-piperidine]-4-ol]	–	< 0.05 µM	0.05 to 0.5 µM	–	106%	–	–
C[C@@H]1CC2(C[C@@H](c3cn(C)nn3)N1)OCCc1cc(Cl)sc12 (single isomer, unassigned) [Compound 7]	–	0.05 to 0.5 µM	> 0.5 µM	92%	–	0.05 to 0.5 µM	–
C[C@H]1CC2(C[C@@H](c3cn(C)nn3)N1)OCCc1sc(Cl)cc12 (single isomer, unassigned) [Compound 173]	–	< 0.05 µM	< 0.05 µM	116%	–	–	–
C[C@H]1CC2(CC(c3cnn(C)c3)N1)OCC(O)c1cc(Cl)sc12 (single isomer, unassigned) [Compound 175]	100.0%	< 0.05 µM	< 0.05 µM	106%	–	< 0.05 µM	–
C[C@H]1CC2(CC(c3cnn(C)c3)N1)OCC(O)c1cc(Cl)sc12 (single isomer, unassigned) [Compound 176]	100.0%	< 0.05 µM	< 0.05 µM	–	–	< 0.05 µM	115.5%
C[C@H]1C[C@@]2(C[C@@H](c3cn(C)nn3)N1)OCC(O)(C(F)F)c1cc(Cl)sc12 (single isomer, unassigned) [Compound 184]	–	< 0.05 µM	0.05 to 0.5 µM	–	–	–	–
C[C@H]1C[C@@]2(C[C@@H](c3cn(C)nn3)N1)OCC(O)(C(F)F)c1cc(Cl)sc12 (single isomer, unassigned) [Compound 185]	99.5%	< 0.05 µM	0.05 to 0.5 µM	–	–	< 0.05 µM	99.0%
C[C@@H]1CC2(C[C@H](C)N1)OCCc1sc(C(F)(F)F)cc12 (single isomer, unassigned) [Compound 196]	–	0.05 to 0.5 µM	0.05 to 0.5 µM	111%	–	–	–
C[C@@H]1CC2(C[C@H](C)N1)OCCc1cc(Br)sc12 (single isomer, unassigned) [Compound 197]	–	0.05 to 0.5 µM	0.05 to 0.5 µM	–	106%	–	–
C[C@@H]1CC2(C[C@H](C)N1)OCCc1cc(C3CC(F)(F)C3)sc12 (single isomer, unassigned) [Compound 198]	–	0.05 to 0.5 µM	0.05 to 0.5 µM	–	–	–	–
CCc1cc2c(s1)C1(C[C@@H](C)N[C@@H](C)C1)OCC2 (single isomer, unassigned) [Compound 199]	–	< 0.05 µM	0.05 to 0.5 µM	–	110%	–	–
CC(C)c1cc2c(s1)C1(C[C@@H](C)N[C@@H](C)C1)OCC2 (single isomer, unassigned) [Compound 200]	–	0.05 to 0.5 µM	0.05 to 0.5 µM	–	98.7%	–	–
CC(C)Cc1cc2c(s1)C1(C[C@@H](C)N[C@@H](C)C1)OCC2 (single isomer, unassigned) [Compound 201]	–	0.05 to 0.5 µM	> 0.5 µM	76.7%	–	–	–
C[C@@H]1CC2(C[C@H](C)N1)OCCc1cc(C3CCCCC3)sc12 (single isomer, unassigned) [Compound 202]	–	> 0.5 µM	> 0.5 µM	19%	–	–	–
C[C@@H]1CC2(C[C@H](C)N1)OCCc1cc(CC(F)F)sc12 (single isomer, unassigned) [Compound 203]	–	< 0.05 µM	< 0.05 µM	102%	–	–	–
